Experimental data as given in patent US5620958A, “Bradykinin antagonists” (Coretech, Inc., priority 1994, dated 1997).
Square brackets hold non-standard residues; d marks the D form. Peptide text beside a SMILES is read from it. Oic = O=C(O)[C@@H]1C[C@@H]2CCCC[C@@H]2N1; Hyp = O=C(O)[C@@H]1C[C@@H](O)CN1; dTic = O=C(O)[C@H]1Cc2ccccc2CN1; 2Thi = N[C@@H](Cc1cccs1)C(=O)O

Key:
[1] = target: T1, BK2 receptor (Rattus norvegicus, UniProt P25023); assay: cell-based
T1 sequence (P25023 1-396): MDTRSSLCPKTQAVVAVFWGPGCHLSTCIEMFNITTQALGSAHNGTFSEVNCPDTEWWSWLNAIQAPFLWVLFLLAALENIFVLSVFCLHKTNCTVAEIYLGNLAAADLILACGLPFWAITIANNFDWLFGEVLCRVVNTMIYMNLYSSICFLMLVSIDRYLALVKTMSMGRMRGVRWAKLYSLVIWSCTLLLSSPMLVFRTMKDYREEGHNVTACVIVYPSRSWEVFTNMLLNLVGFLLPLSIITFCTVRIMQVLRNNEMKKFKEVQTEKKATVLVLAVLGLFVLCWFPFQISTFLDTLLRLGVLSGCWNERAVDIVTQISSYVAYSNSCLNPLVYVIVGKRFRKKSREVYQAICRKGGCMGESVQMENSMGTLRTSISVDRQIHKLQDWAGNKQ

[2] = target: T2, BK2 receptor (Cavia porcellus, UniProt O70526); assay: guinea-pig ileum (GPI) in vitro, antagonism of BK; assay type: cell-based; settings: Table B; read-out: pA2 GUINEA PIG ILEUM (converted)
T2 construct: tested for activity on guinea pig ileum in vitro on the standard tissue bath/strain gauge system; from tissue; host or cells: guinea pig ileum
T2 sequence (O70526 1-372): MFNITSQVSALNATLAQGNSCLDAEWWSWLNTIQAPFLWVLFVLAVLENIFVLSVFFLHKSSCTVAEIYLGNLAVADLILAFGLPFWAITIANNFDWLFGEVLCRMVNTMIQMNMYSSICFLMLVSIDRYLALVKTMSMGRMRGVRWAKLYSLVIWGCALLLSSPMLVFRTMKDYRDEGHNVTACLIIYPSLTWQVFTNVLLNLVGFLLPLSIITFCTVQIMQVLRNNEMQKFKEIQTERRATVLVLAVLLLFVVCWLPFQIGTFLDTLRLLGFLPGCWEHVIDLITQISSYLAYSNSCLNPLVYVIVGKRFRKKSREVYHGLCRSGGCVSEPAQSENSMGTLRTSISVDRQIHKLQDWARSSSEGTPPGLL
Method: Thus, in vitro studies were performed on standard assay systems, namely, guinea-pig ileum (GPI), rat uterus (RU) and rabbit jugular vein (RJV). […] The potency of each compound was assessed as a pA2 value according to the method of Arunlakshana & Schild, Br. J. Pharmacol. Chemother., 1.4:48-58 (1959). The pA2 can be defined as the negative logarithm of the molar concentration of the antagonist in the presence of which the potency of the agonist is reduced two-fold, i.e., twice the amount of agonist is required to produce a given response in the presence of, than in the absence of, the antagonist. A high potency of antagonism is indicated by a high pA2 value, i.e., a low concentration of antagonist is effective.
The percentage recovery (% Rec) was also determined for compounds with respect to each assay.
The various compounds identified in Table B below were prepared following the procedure of Example 1 with the Cys moiety introduced into the parent CP-0088 at the position indicated followed by reaction between the sulfhydryl group of the Cys residue and BMH to provide dimers as indicated. The Cys-modified monomers and the resultant dimers were tested for activity on guinea pig ileum in vitro on the standard tissue bath/strain gauge system as before.

[3] = target: T3, BK1 receptor (Oryctolagus cuniculus, UniProt P48748); assay: blood pressure response to BK1 agonist in LPS-pretreated rabbits; assay type: in vivo, rabbit; settings: rabbits given LPS (10 μg) 20 hours before
T3 construct: when administered to an intact animal; from tissue; host or cells: whole rabbit (systemic arterial blood pressure), LPS-pretreated
T3 sequence (P48748 1-352): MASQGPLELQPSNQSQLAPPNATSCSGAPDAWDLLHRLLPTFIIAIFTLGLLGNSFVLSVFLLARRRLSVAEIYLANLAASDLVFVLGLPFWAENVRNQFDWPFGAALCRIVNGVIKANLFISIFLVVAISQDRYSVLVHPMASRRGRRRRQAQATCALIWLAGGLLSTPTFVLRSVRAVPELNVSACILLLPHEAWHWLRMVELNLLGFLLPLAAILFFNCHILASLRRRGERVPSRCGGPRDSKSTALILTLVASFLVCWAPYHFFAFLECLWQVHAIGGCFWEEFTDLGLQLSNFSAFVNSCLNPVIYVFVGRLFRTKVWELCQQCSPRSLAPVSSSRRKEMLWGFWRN

[4] = target: T4, BK2 receptor (Oryctolagus cuniculus, UniProt Q28642); assay: blood pressure response to BK2 agonist in LPS-pretreated rabbits; assay type: in vivo, rabbit; parameters: key to OBSERVED ANTAGONIST ACTIVITY BK2: +: indicates complete blockade of the blood pressure response to the appropriate agonist; +/-: indicates partial blockade; -: indicates no observable effect at the dose indicated; settings: rabbits given LPS (10 μg) 20 hours before
T4 construct: when administered to an intact animal; from tissue; host or cells: whole rabbit (systemic arterial blood pressure), LPS-pretreated
T4 sequence (Q28642 1-367): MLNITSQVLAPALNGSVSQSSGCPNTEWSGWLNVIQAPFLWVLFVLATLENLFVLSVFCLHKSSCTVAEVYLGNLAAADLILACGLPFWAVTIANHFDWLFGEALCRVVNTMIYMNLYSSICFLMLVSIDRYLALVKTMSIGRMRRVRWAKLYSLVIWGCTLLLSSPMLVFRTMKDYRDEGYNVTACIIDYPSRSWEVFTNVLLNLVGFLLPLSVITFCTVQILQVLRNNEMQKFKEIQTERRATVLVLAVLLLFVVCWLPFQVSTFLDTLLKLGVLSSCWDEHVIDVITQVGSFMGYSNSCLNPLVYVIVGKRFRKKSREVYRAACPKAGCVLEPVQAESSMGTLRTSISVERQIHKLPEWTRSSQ

SMILES	Kb [1]	Kb [2]	OBSERVED ANTAGONIST ACTIVITY BK1 ([3]; 1 μg kg^-1 min^-1)	OBSERVED ANTAGONIST ACTIVITY BK1 ([3]; 3 μg kg^-1 min^-1)	OBSERVED ANTAGONIST ACTIVITY BK1 ([3]; 10 μg kg^-1 min^-1)	OBSERVED ANTAGONIST ACTIVITY BK2 ([4]; 1 μg kg^-1 min^-1)	OBSERVED ANTAGONIST ACTIVITY BK2 ([4]; 3 μg kg^-1 min^-1)	OBSERVED ANTAGONIST ACTIVITY BK2 ([4]; 10 μg kg^-1 min^-1)
CC(C)C[C@H](NC(=O)[C@@H](Cc1ccccc1)NC(=O)[C@H](CSC1CC(=O)N(CCCCCCCCCCN2C(=O)CC(SC[C@H](NC(=O)[C@H](Cc3ccccc3)NC(=O)CNC(=O)[C@@H]3C[C@@H](O)CN3C(=O)[C@@H]3CCCN3C(=O)[C@H](CCCNC(=N)N)NC(=O)[C@H](N)CCCNC(=N)N)C(=O)N[C@H](Cc3ccccc3)C(=O)N[C@@H](CC(C)C)C(=O)N[C@@H](CCCNC(=N)N)C(=O)O)C2=O)C1=O)NC(=O)[C@H](Cc1ccccc1)NC(=O)CNC(=O)[C@@H]1C[C@@H](O)CN1C(=O)[C@@H]1CCCN1C(=O)[C@H](CCCNC(=N)N)NC(=O)[C@H](N)CCCNC(=N)N)C(=O)N[C@@H](CCCNC(=N)N)C(=O)O (stereo partly drawn) [CP-0230] (HELM PEPTIDE1{[dR].R.P.[Hyp].G.F.C.[dF].L.R}|PEPTIDE2{[dR].R.P.[Hyp].G.F.C.[dF].L.R}|CHEM1{[O=C1CC([*:1])C(=O)N1CCCCCCCCCCN1C(=O)CC([*:2])C1=O]}$PEPTIDE1,CHEM1,7:R3-1:R1|PEPTIDE2,CHEM1,7:R3-1:R2$$$V2.0)	2.51 nM							
CC(C)C[C@H](NC(=O)[C@@H](Cc1ccccc1)NC(=O)[C@H](CO)NC(=O)[C@H](Cc1ccccc1)NC(=O)CNC(=O)[C@@H]1C[C@@H](O)CN1C(=O)[C@@H]1CCCN1C(=O)[C@H](CSC1CC(=O)N(CCCCCCN2C(=O)CC(SC[C@H](NC(=O)[C@H](N)CCCNC(=N)N)C(=O)N3CCC[C@H]3C(=O)N3C[C@H](O)C[C@H]3C(=O)NCC(=O)N[C@@H](Cc3ccccc3)C(=O)N[C@@H](CO)C(=O)N[C@H](Cc3ccccc3)C(=O)N[C@@H](CC(C)C)C(=O)N[C@@H](CCCNC(=N)N)C(=O)O)C2=O)C1=O)NC(=O)[C@H](N)CCCNC(=N)N)C(=O)N[C@@H](CCCNC(=N)N)C(=O)O (stereo partly drawn) [CP-0153] (HELM PEPTIDE1{[dR].C.P.[Hyp].G.F.S.[dF].L.R}|PEPTIDE2{[dR].C.P.[Hyp].G.F.S.[dF].L.R}|CHEM1{[O=C1CC([*:1])C(=O)N1CCCCCCN1C(=O)CC([*:2])C1=O]}$PEPTIDE1,CHEM1,2:R3-1:R1|PEPTIDE2,CHEM1,2:R3-1:R2$$$V2.0)		25.1 nM						
N=C(N)NCCC[C@@H](N)C(=O)N[C@@H](CCCNC(=N)N)C(=O)N1CCC[C@H]1C(=O)N1C[C@H](O)C[C@H]1C(=O)NCC(=O)N[C@@H](Cc1ccccc1)C(=O)N[C@@H](CO)C(=O)N1Cc2ccccc2C[C@@H]1C(=O)N1[C@H](C(=O)O)C[C@@H]2CCCC[C@@H]21 [CP-0267] (HELM PEPTIDE1{[dR].R.P.[Hyp].G.F.S.[O=C([C@H]1Cc2ccccc2CN1[*:1])[*:2]].[O=C(O)[C@@H]1C[C@@H]2CCCC[C@@H]2N1[*:1]]}$$$$V2.0)			-	-	+	-	-	+/-
CC(C)C[C@H](NC(=O)[C@@H](Cc1ccccc1)NC(=O)[C@H](CSC1CC(=O)N(CCCCCCCCCN2C(=O)CC(SC[C@H](NC(=O)[C@H](Cc3ccccc3)NC(=O)CNC(=O)[C@@H]3C[C@@H](O)CN3C(=O)[C@@H]3CCCN3C(=O)[C@H](CCCNC(=N)N)NC(=O)[C@H](N)CCCNC(=N)N)C(=O)N[C@H](Cc3ccccc3)C(=O)N[C@@H](CC(C)C)C(=O)N[C@@H](CCCNC(=N)N)C(=O)O)C2=O)C1=O)NC(=O)[C@H](Cc1ccccc1)NC(=O)CNC(=O)[C@@H]1C[C@@H](O)CN1C(=O)[C@@H]1CCCN1C(=O)[C@H](CCCNC(=N)N)NC(=O)[C@H](N)CCCNC(=N)N)C(=O)N[C@@H](CCCNC(=N)N)C(=O)O (stereo partly drawn) [CP-0229] (HELM PEPTIDE1{[dR].R.P.[Hyp].G.F.C.[dF].L.R}|PEPTIDE2{[dR].R.P.[Hyp].G.F.C.[dF].L.R}|CHEM1{[O=C1CC([*:1])C(=O)N1CCCCCCCCCN1C(=O)CC([*:2])C1=O]}$PEPTIDE1,CHEM1,7:R3-1:R1|PEPTIDE2,CHEM1,7:R3-1:R2$$$V2.0)	0.501 nM							
N=C(N)NCCC[C@@H](N)C(=O)N[C@@H](CCCNC(=N)N)C(=O)N1CCC[C@H]1C(=O)N1C[C@H](O)C[C@H]1C(=O)NCC(=O)N[C@@H](Cc1cccs1)C(=O)N[C@@H](CO)C(=O)N1Cc2ccccc2C[C@@H]1C(=O)N1[C@H](C(=O)O)C[C@@H]2CCCC[C@@H]21 [CP-0345] (H-[dR]RP[Hyp]G[2Thi]S[dTic][Oic]-OH; N-terminus and C-terminus assumed)			-	+	+	-	+/-	+
CC(C)C[C@H](NC(=O)[C@@H]1CCCN1C(=O)[C@H](CO)NC(=O)[C@H](Cc1ccccc1)NC(=O)CNC(=O)[C@@H]1CCCN1C(=O)[C@@H]1CCCN1C(=O)[C@H](CCCNC(=N)N)NC(=O)[C@@H](N)CCCCN)C(=O)O [CP-0298, Lys^0Arg^1Pro^2Pro^3Gly^4Phe^5Ser^6Pro^7Leu^8, reference compound]			+	+	+	-	-	-
CC(C)C[C@H](NC(=O)[C@@H](Cc1ccccc1)NC(=O)[C@H](CO)NC(=O)[C@H](Cc1ccccc1)NC(=O)CNC(=O)[C@@H]1C[C@@H](O)CN1C(=O)[C@@H]1CCCN1C(=O)[C@H](CSC1CC(=O)N(CCCCCCN2C(=O)CC(SC[C@H](NC(=O)[C@H](Cc3ccccc3)NC(=O)CNC(=O)[C@@H]3C[C@@H](O)CN3C(=O)[C@@H]3CCCN3C(=O)[C@H](CCCNC(=N)N)NC(=O)[C@H](N)CCCNC(=N)N)C(=O)N[C@H](Cc3ccccc3)C(=O)N[C@@H](CC(C)C)C(=O)N[C@@H](CCCNC(=N)N)C(=O)O)C2=O)C1=O)NC(=O)[C@H](N)CCCNC(=N)N)C(=O)O (stereo partly drawn) [CP-0386] (HELM PEPTIDE1{[dR].R.P.[Hyp].G.F.C.[dF].L.R}|PEPTIDE2{[dR].C.P.[Hyp].G.F.S.[dF].L}|CHEM1{[O=C1CC([*:1])C(=O)N1CCCCCCN1C(=O)CC([*:2])C1=O]}$PEPTIDE1,CHEM1,7:R3-1:R1|PEPTIDE2,CHEM1,2:R3-1:R2$$$V2.0; N-terminus and C-terminus assumed)			+	+	+	+	+	+
